We go through one molecule from patent US6136817A, “Opioid receptor antagonist compounds” (Astra AB, priority 1994, dated 2000).

Each structure is given as a SMILES string. Where a name gives a salt, the structure may show the parent alone.

For the assay, the target named is T1, δ opioid receptors (Mus musculus, UniProt P32300).
T1 construct: antagonism of the delta-selective agonist DPDPE
The assay is described as follows: opioid antagonism against receptor selective agonists (DAMGO, μ; Cl 977, κ; DPDPE, δ) in electrical stimulated guinea-pig ileum (GPI) and mouse vas deferens (MVD) preparations. The format is cell-based. As for the experimental part:
δ-Antagonism was assessed using the electrical stimulated guinea-pig ileum longitudinal muscle preparation (GPI; containing μ and κ opioid receptors) and mouse vas deferens preparation (MVD; containing μ, κ and δ opioid receptors) (H. Schmidhammer et al., J. Med. Chem., Vol. 32: 418-421, 1989; H Schnmidhammer et al., J. Med. Chem., Vol. 33:1200-1206,1990). The activity of the compound 1 of the Examples for inhibiting the suppression of contraction of the organs by three receptor selective agonists (DAMGO, μ; Cl 977, κ; DPDPE, δ) was measured.

T1 sequence (P32300 whole entry): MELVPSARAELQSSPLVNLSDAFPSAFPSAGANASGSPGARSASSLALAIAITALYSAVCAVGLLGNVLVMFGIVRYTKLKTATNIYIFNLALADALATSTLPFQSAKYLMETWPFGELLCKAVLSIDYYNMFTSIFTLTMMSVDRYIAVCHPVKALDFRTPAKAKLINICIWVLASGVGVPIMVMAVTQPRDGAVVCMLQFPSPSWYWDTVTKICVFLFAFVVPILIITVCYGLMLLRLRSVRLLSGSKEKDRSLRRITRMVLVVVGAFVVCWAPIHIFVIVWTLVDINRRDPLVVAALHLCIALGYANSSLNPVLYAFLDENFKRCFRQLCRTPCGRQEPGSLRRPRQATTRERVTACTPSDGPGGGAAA

On to `CCO[C@@]12Cc3c([nH]c4ccccc34)[C@]3(C)Oc4c(O)ccc5c4[C@@]31CCN(CC1CC1)[C@@H]2C5` [compound 1, 17-(Cyclopropylmethyl)-6,7-dehydro-4,5α-epoxy-14-ethoxy-3-hydroxy-5-methyl-6,7-2',3'-indolomorphinan hydrochloride], for which the “opioid antagonism (inhibiting the suppression of contraction of the organs by receptor selective agonists)” value (GPI and MVD preparations, agonists DAMGO (μ), Cl 977 (κ), DPDPE (δ)) is given as “δ-selective opioid antagonism”. Further, the κ/δ selectivity ratio entry (antagonism of Cl 977 (κ) vs DPDPE (δ)) was “very good”. Moreover, the μ/δ selectivity ratio entry (antagonism of DAMGO (μ) vs DPDPE (δ)) is recorded as “very good”.
